# Test results as given in US20240238272A1, “TREATMENT OF ANTIPHOSPHOLIPID SYNDROME USING S-HYDROXYCHLOROQUINE” (Genovate Biotechnology Co. Ltd., priority 2021, published 2024).
# Legend:
# [1] = target: T1, β2-GP1 and antibody binding (Homo sapiens, UniProt P02749); assay: Dot blot assay of β2-GP1 and antibody binding, THP-1 total lysate; details: 10 mg/mL, mean ± S.E.M., triplicate
# T1 construct: THP-1 is a human peripheral blood monocyte that highly expresses β2-GP1; endogenous in cells; host or cells: THP-1 (human monocyte cell line): total lysate in the dot blot, whole cells in the ELISA
# T1 sequence (P02749 20-345): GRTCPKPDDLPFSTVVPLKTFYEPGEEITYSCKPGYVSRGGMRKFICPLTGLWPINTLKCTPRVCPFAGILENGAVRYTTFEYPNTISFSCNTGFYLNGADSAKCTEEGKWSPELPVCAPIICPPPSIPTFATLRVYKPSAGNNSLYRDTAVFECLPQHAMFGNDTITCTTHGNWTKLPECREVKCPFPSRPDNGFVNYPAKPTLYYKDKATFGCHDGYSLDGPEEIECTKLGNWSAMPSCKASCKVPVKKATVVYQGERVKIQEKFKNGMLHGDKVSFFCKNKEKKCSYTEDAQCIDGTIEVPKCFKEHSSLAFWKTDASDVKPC
# Procedure: THP-1 is a human peripheral blood monocyte that highly expresses β2-GP1 and is associated with increased APS in patients. Before treating with HCQ, THP-1 cells were fixed in a 3.7% paraformaldehyde solution, blocked in a phosphate-buffered saline (PBS) containing 1% bovine serum albumin (BSA), and incubated with a mouse aPL antibody (A500-006A, Bethyl Laboratories, Montgomery, Texas). Cellular immunofluorescent staining was used to determine β2-GP1 expression.
# Separate samples were prepared for a dot blot assay as follows: a THP-1 total lysate was loaded to a polyvinylidene difluoride membrane, blocked with PBS containing 1% BSA, and incubated with mouse anti-β2-GP1 A500-006A, together with S-HCQ, R-HCQ, or racemic HCQ, each at a concentration of 10 mg/mL. A control sample was obtained following the same procedure described above except that no HCQ was added.
# (§1) All assays above were performed in triplicate. Reported results are expressed as means±S.E.M. All statistical analyses were performed using a software under the trademark of GraphPad Prism® (Version 8.0. GraphPad Software Inc, San Diego, California). For comparisons between two groups, student's test was used. A p-value<0.05 was considered statistically significant.
# [2] = tested on: annexin V on THP-1 cell surfaces; assay: Restoration of annexin A5 anticoagulant shield on THP-1 cells treated with anti-β2-GP1 IgG; format: cell-based, human; details: 0.5 μg/mL HCQ; comparative sample without HCQ = 1
# Procedure: THP-1 cells were first maintained in a RPMI1640 medium (Thermo Fisher Scientific, Waltham, Massachusetts) containing 10% fetal bovine serum, 2 mM L-glutamine, and 50 U/mL penicillin-streptomycin antibiotics. They were then seeded at a density of 8×10^4 cells/well in a 96-well culture plate and were allowed to reach confluence. Subsequently, THP-1 cells were treated with anti-β2-GP1 IgG in the presence of 0.5 μg/mL HCQ. Levels of annexin V on cell surfaces were determined by optical absorbance after the IgG-treated THP-1 cells were rinsed with HBS-CaCl2) solution to remove free annexin V, leaving only annexin V that is attached to the cell surface.
# Three samples were prepared each with one of three HCQ (i.e., S-HCQ, R-HCQ, and racemic HCQ) solutions. A comparative sample was obtained following the same procedure described above except that HCQ was not added. A patient serum containing β2-GP1 antibody was used as a control sample.
# [3] = tested on: thrombosis induced by anti-β2GP1 antibody; assay: APS-related thrombosis mice model, femoral vein pinch, clot formation; format: in vivo, C57BL/6 male mice
# Procedure: C57BL/6 male mice at ages of 8-12 weeks (purchased from BioLasco, Taiwan) were used in this study. All procedures were approved by the Institutional Animal Care Committee of Taipei Medical University. Venous thrombosis was induced in mice using an endothelial injury model. […] They were anesthetized 72 hours after the injection. The right femoral vein was exposed and pinched with a pressure of 1500 g/mm^2 to induce formation of a thrombus. […] As such, the anti-β2GP1 antibody was injected to a mouse at 100 AU for all studies below. Following the procedure described above, a mouse (i.e., HCQ-treated mouse) was injected with 100 AU of the anti-β2GP1 antibody from Patient 5 and 2000 μg racemic-HCQ (200 μl at 10 mg/ml). As a control, a group of mice (n=4; APS-induced mice) were injected with only 100 AU of the anti-β2GP1 antibody. After 72 hours, the right femoral vein of each mouse was exposed and pinched with a pressure of 1500 g/mm^2 to induce formation of a thrombus. Thrombosis time (in minute) was recorded. […] Clots were removed from the femoral vein after pinch for 5 minutes.
# E-selectin = assay: APS-related thrombosis mice model, serum expression level of E-selectin; format: in vivo; details: for Inhibition (E-selectin): relative to comparative group; for Thrombosis (E-selectin): serum expression level relative to comparative group
# Procedure: (§2) Venous thrombosis was induced in mice using an endothelial injury model. Mice were intravenously (IV) injected 7.5% FeCl3 (positive control), saline (negative control), or an APS-derived anti-β2GP1 antibody (from Patient 2) at a dosage of 100, 200, or 300 AU (test group). They were anesthetized 72 hours after the injection. The right femoral vein was exposed and pinched with a pressure of 1500 g/mm^2 to induce formation of a thrombus.
# (§3) Based on the APS animal model described above, R-HCQ and S-HCQ were administered to mice for reducing thrombosis. Mice were divided into 6 groups, each of which was injected with (1) IgG as a control group, (2) 100 AU of the anti-β2GPI antibody as a comparative group, (3) a combination of 100 AU of the anti-B2GPI antibody and 300 μg of S-HCQ as treatment group 3, (4) a combination of 100 AU of the anti-B2GPI antibody and 200 μg of S-HCQ as treatment group 4, (5) a combination of 100 AU of the anti-B2GPI antibody and 200 μg of R-HCQ as treatment group 5, or (6) a combination of 100 AU of the anti-β2GP1 antibody and 100 μg of R-HCQ as treatment group 6.
# (§4) Serum expression levels of E-selectin and VCAM-1, two biomarkers of APS-related thrombosis, were measured. Percentages of inhibition in treatment groups 3-6 were calculated based on the expression levels of E-selectin and VCAM-1 relative to the comparative group. A low expression level of E-selectin or VCAM-1 indicates high inhibition of thrombosis.
# VCAM-1 = assay: APS-related thrombosis mice model, serum expression level of VCAM-1; format: in vivo; details: for Inhibition (VCAM-1): relative to comparative group; for Thrombosis (VCAM-1): serum expression level relative to comparative group
# Procedure: as §2, §3, §4
# [4] = tested on: APS-related thrombosis (E-selectin and VCAM-1); assay: APS-related thrombosis mice model, average of E-selectin and VCAM-1; format: in vivo
# Procedure: as §2, §3, §4
# [5] = target: T2, β2-GP1 and antibody binding (THP-1 cells) (Homo sapiens, UniProt P02749); assay: ELISA assay of β2-GP1-antibody binding to THP-1 membrane; format: cell-based
# T2 construct: THP-1 is a human peripheral blood monocyte that highly expresses β2-GP1; endogenous in cells; host or cells: THP-1 (human monocyte cell line): total lysate in the dot blot, whole cells in the ELISA
# T2 sequence (P02749 20-345): T1 sequence (P02749 20-345)
# Procedure: Subsequently, an ELISA assay was performed to determine whether S-HCQ or R-HCQ inhibiting binding of β2-GP1-antibody complexes to the THP-1 membrane. THP-1 cells thus treated were resuspended to a density of 3.6×10^5 cells/mL in a medium containing 80% RPMI-1640 (Thermo Fisher Scientific, Waltham, Massachusetts), 20% anti-β2-GP1 immunoglobulin G (“IgG”) (0.2 mg/mL) in HEPES-buffered saline (HBS, pH 7.45), and S-HCQ. Three samples were each prepared from a medium having a different S-HCQ concentration, i.e., 1 μg/mL, 2.5 μg/mL, or 5 μg/mL. A control sample was obtained following the same procedure described above except that no S-HCQ was added. Optical absorbance was measured at 450 nm.
# as §1
smiles,measurement,setting,value
"CCN(CCO)CCCC(C)Nc1ccnc2cc(Cl)ccc12 (racemic) [racemic HCQ, Hydroxychloroquine]",inhibition at 10000 µg/mL,[1],80%
same,relative level of annexin V,[2],3.09
same,thrombosis time,"[3]; 2000 μg with 100 AU anti-β2GP1 antibody, 72 hours after injection, healthy mice 5, APS-induced mice 2",5 min
same,thrombus size,"[3]; 2000 μg, clots removed after pinch for 5 minutes, versus mice without HCQ treatment",significantly reduced the thrombus size
"CCN(CCO)CCC[C@@H](C)Nc1ccnc2cc(Cl)ccc12 [R-HCQ, (R)-(−)-hydroxychloroquine]",inhibition of β2-GP1 and antibody binding,[1],23%
same,relative level of annexin V,[2],2.54
same,Inhibition (E-selectin),E-selectin; 100 μg,25.2%
same,Thrombosis (E-selectin),E-selectin; 100 μg,74.8%
same,Inhibition (E-selectin),E-selectin; 200 μg,30%
same,Thrombosis (E-selectin),E-selectin; 200 μg,70%
same,Inhibition (VCAM-1),VCAM-1; 100 μg,16.3%
same,Thrombosis (VCAM-1),VCAM-1; 100 μg,83.7%
same,Inhibition (VCAM-1),VCAM-1; 200 μg,23%
same,Thrombosis (VCAM-1),VCAM-1; 200 μg,75%
same,Inhibition Average,[4]; 100 μg,20.75%
same,Thrombosis Average,[4]; 100 μg,79.25%
same,Inhibition Average,[4]; 200 μg,26.5%
same,Thrombosis Average,[4]; 200 μg,72.5%
"CCN(CCO)CCC[C@H](C)Nc1ccnc2cc(Cl)ccc12 [S-HCQ, S-(+)-hydroxychloroquine]",inhibition of β2-GP1 and antibody binding,[1],97%
same,inhibition rate of β2-GP1 and antibody binding,[5]; 1 μg/mL,25%
same,inhibition rate of β2-GP1 and antibody binding,[5]; 2.5 μg/mL,60%
same,inhibition rate of β2-GP1 and antibody binding,[5]; 5 μg/mL,90%
same,relative level of annexin V,[2],3.45
same,Inhibition (E-selectin),E-selectin; 200 μg,53.8%
same,Thrombosis (E-selectin),E-selectin; 200 μg,46.2%
same,Inhibition (E-selectin),E-selectin; 300 μg,59.4%
same,Thrombosis (E-selectin),E-selectin; 300 μg,40.6%
same,Inhibition (VCAM-1),VCAM-1; 200 μg,49%
same,Thrombosis (VCAM-1),VCAM-1; 200 μg,50.9%
same,Inhibition (VCAM-1),VCAM-1; 300 μg,52%
same,Thrombosis (VCAM-1),VCAM-1; 300 μg,47.8%
same,Inhibition Average,[4]; 200 μg,51.4%
same,Thrombosis Average,[4]; 200 μg,48.55%
same,Inhibition Average,[4]; 300 μg,55.7%
same,Thrombosis Average,[4]; 300 μg,44.2%
